Data set [1] can be described thus: PAMPA permeability. The settings on record: for Papp at 5 h, 20 μM: PAMPA, 5 hours at RT.
Excerpt: Parallel artificial membrane permeability (PAMPA) assay is a non-cell based assay designed to predict in vivo biological membrane permeability of drugs in early stage of drug discovery. […] The Corning Gentest Pre-coated PAMPA plate system was designed by 96-well insert system with a 0.45 μm PVDF (polyvinylidene fluoride) filter plate which has been pre-coated with structured tri-layers of phospholipids (lipid/oil/lipid) and a matched receiver microplate.
Donor solutions of test compounds (300 μL, 20 μM in PBS/MeOH 90:10) were added to each well of the donor plate. 200 μL of PBS/MeOH 90:10 was added to each well of the acceptor plate. The acceptor plate was coupled with the donor plate and incubated for 5 hours at room temperature (RT) without agitation. In each plate, compounds were tested in triplicate. At the end of the incubation, drug concentration in the initial donor solution, acceptor and the donor wells were determined using LC/MS/MS. A five (5) points standard curve from 0.1 to 1000 nM for each test compound were prepared. Analyte samples were diluted to within standard curve concentration with ACN/H2O 50:50 prior analysis.
All samples were analyzed by electrospray ionization (ESI) liquid chromatograph/mass spectrometry (LC/MS) system utilizing Sciex 5500 quadropule ion trap (Qtrap) mass spectrometry with Shidmazu Nexera X2 UHPLC. The LC-MS/MS instrument monitored each of the test compound in the study based of their respective mass-to-charge (m/z) transitions and MS parameters. Chromatographic separation was achieved on Phenomenex Luna C18 column (50×2.0 mm, 3 μm particle size) by using a gradient elution: mobile phase A contains 0.1% formic acid in water and mobile phase B contains 0.1% formic acid in acetonitrile; A/B (99:1) from 0 to 1 minutes; to A/B (1:99) from 1 to 4 minutes; A/B (1:99) from 4 to 8 minutes; to A/B (99:1) from 8 to 8.20 minutes; A/B (99:1) from 8.2 to 9 minutes. The flow rate was 0.4 mL/min and the column temperature was maintained at 35° C. and autosampler temperature at 4° C. For detection, the electrospray ionization operated in the positive mode using multiple reaction monitoring (MRM).
Data acquisition, and peak integrations were obtained by Analyst® Version 1.7.1 (Sciex) operating with Windows® (Microsoft). The standard curve regressions and sample concentrations were generated and calculated by Analyst®. Concentrations in the sample solutions were determined based on the measured peak area ratios from the response of the analyte to the internal standard with reference to the standard calibration curve. All sample calculations were calculated using a linear regression with 1/x^2 weighting (where x is the concentration of given calibration standard level).
Permeability of the test compounds was calculated using the following formula:
The permeability of compounds was evaluated with the parallel artificial membrane permeation assay (PAMPA) as an in vivo model of passive diffusion across a porous filter coated with a lipid/oil/lipid tri-layer artificial membrane. […] Donor solutions of test compounds (300 μL, 20 μM in PBS/MeOH 90:10) were added to each well of the donor plate. 200 μL of PBS/MeOH 90:10 was added to each well of the acceptor plate. The acceptor plate was coupled with the donor plate and incubated for 5 hours at room temperature (RT) without agitation. In each plate, compounds were tested in triplicate. At the end of the incubation, drug concentration in the initial donor solution, acceptor and the donor wells were determined using LC/MS/MS. Permeability of test compounds was calculated based on the formula described in the General Procedures above. The PAMPA permeability classification criteria are categorized into three (3) classes with a high (Pe≥1.5×10−6 cm/s), intermediate (5.5×10−8<Pe<1.5×10−6 cm/s), and low (Pe<5.5×10−8 cm/s) permeability.
Data set [2] is described as follows: In-vitro half-life in human liver microsomes. Format: in vitro ADME. The settings on record: Human liver microsomes 0.5 mg/mL; 1 μg/mL drug; NRS; read-out: Metabolic Half-life. Here is the method:
In each of the species (human, rat, mouse) of liver matrix to be tested, a working concentration of 2 μg/mL was prepared of each test article from the 0.5 mg/mL DMSO stock solution by adding 3 μL of 0.5 mg/mL test article stock solution to 747 μL of the 1 mg/mL liver matrix. Incubation was performed at 37±2° C. with gentle, continuous mixing in shaking water bath in 2.0 mL-well capacity 96-Deepwell plates (96-DWP). Samples were retrieved in duplicate at the following time points: 0, 5, 10, 15, 30 and 60 minutes. The final mixture contained 1 μg/mL of drug and 0.5 mg/mL of liver matrix. First, 50 μL of test articles in liver matrix was added to the 96-DWP and pre-warmed the mixture in the 96-DWP for 2 minutes in the 37° C. water bath. The enzymatic reaction was started by the addition of 50 μL of the corresponding 2× NADPH regenerating system (NRS) cofactor solution to all sample wells and stopped by the addition of 300 μL of stop solution (acetonitrile containing 10 ng/mL Tolbutamide as an internal standard (I.Std.). The samples were agitated for 10 minutes and then centrifuged for 20 minutes at 4500 rpm. 25 μL of supernatant was diluted with 475 μL acetonitrile containing I. Std. into a new 96-DWPs for LC-MS/MS analysis.
Half-life calculations were generated and calculated by Graphpad Prism® software. The half-life of test compound was calculated based on the first-order reaction kinetics. The data was transformed to linear regression (y=log(y) where “y” axis represents the % compound remaining at any given time with respect to time 0 minutes; “x” axis represents time in minutes) in order to calculate the half-life.
A comparison of metabolic stability in time-course incubation experiments in varying species of liver can provide information of pharmacokinetic properties of drugs attributable to species-related differences in hepatic metabolism. The results of these experiments often assist in further applications such as assessing in vitro metabolite profiling and choosing relevant species for toxicology studies based on similarities relative to the metabolic stability to the human profile. For these experiments, the test compound was tested in parallel with a positive control, Dasatinab, in an enzymatic reaction solution of each species (human and rat) of liver microsomes containing a NADPH regenerating system (NRS). The final mixture contained 1 μg/mL of drug and 0.5 mg/mL of liver matrix. Incubations were performed at 37±2° C. with gentle, continuous mixing in shaking water bath in 96-Deep well plates. The stability of the test compound is monitored using fast, specific and sensitive LC/MS/MS analysis.

Where [3] appears, read: PAMPA permeability Classification, 20 μM donor.
Setting [4] is: Permeability, Pe, 20 μM donor in PBS/MeOH 90:10.

On to `COc1cc2c(NC3CCS(=O)(=O)CC3)nc(N3CCC(F)(F)CC3)nc2cc1OCCCN1CCCC1` [Compound 1, 4-((2-(4,4-difluoropiperidin-1-yl)-6-methoxy-7-(3-(pyrrolidin-1-yl)propoxy)quinazolin-4-yl)amino)tetrahydro-2H-thiopyran 1,1-dioxide], for which the Papp at 5 h, 20 μM in data set [1] (setting [3]) was < 0.055 ×10⁻⁶ cm/s; in data set [1] (setting [4]), 0.0441 ×10⁻⁶ cm/s. The half-life at 1 μg/mL in data set [2] was > 60 min.

For `COc1cc2c(NC3CCOCC3)nc(N3CCC(F)(F)CC3)nc2cc1OCCCN1CCCC1` [Compound 2, 2-(4,4-difluoropiperidin-1-yl)-6-methoxy-7-(3-(pyrrolidin-1-yl)propoxy)-N-(tetrahydro-2H-pyran-4-yl)quinazolin-4-amine], the “permeability / oral absorption potential (in words)” value in data set [1] is reported as “very high permeability”. Further, the Papp at 5 h, 20 μM in data set [1] (setting [3]) is > 1.5 ×10⁻⁶ cm/s; in data set [1] (setting [4]), 6.38 ×10⁻⁶ cm/s. In data set [2], the half-life at 1 μg/mL was > 60 min.

Regarding `COCCN1CCC(Nc2nc(N3CCC(F)(F)CC3)nc3cc(OCCCN4CCCC4)c(OC)cc23)CC1` [Compound 3, 2-(4,4-difluoropiperidin-1-yl)-6-methoxy-N-(1-(2-methoxyethyl)piperidin-4-yl)-7-(3-(pyrrolidin-1-yl)propoxy)quinazolin-4-amine], the Papp at 5 h, 20 μM was 0.055 to 1.5 ×10⁻⁶ cm/s in data set [1] (setting [3]) and 0.451 ×10⁻⁶ cm/s in data set [1] (setting [4]). Moreover, in data set [2], the half-life at 1 μg/mL was > 60 min.

Turning to `COCCNc1nc(N2CCC(F)(F)CC2)nc2cc(OCCCN3CCCC3)c(OC)cc12` [Compound 4, 2-(4,4-difluoropiperidin-1-yl)-6-methoxy-N-(2-methoxyethyl)-7-(3-(pyrrolidin-1-yl)propoxy)quinazolin-4-amine], the “permeability / oral absorption potential (in words)” value in data set [1] is recorded as “very high permeability”. Besides, the apparent permeability (Papp) at 5 h, 20 μM was > 1.5 ×10⁻⁶ cm/s in data set [1] (setting [3]) and 1.77 ×10⁻⁶ cm/s in data set [1] (setting [4]). Moreover, the half-life at 1 μg/mL in data set [2] is > 60 min.

Consider `COc1cc2c(NCC3CCN(C)CC3)nc(N3CCC(F)(F)CC3)nc2cc1OCCCN1CCCC1` [Compound 5, 2-(4,4-difluoropiperidin-1-yl)-6-methoxy-N-((1-methylpiperidin-4-yl)methyl)-7-(3-(pyrrolidin-1-yl)propoxy)quinazolin-4-amine], for which the Papp at 5 h, 20 μM was < 0.055 ×10⁻⁶ cm/s in data set [1] (setting [3]) and 0.00649 ×10⁻⁶ cm/s in data set [1] (setting [4]). Further, in data set [2], the half-life at 1 μg/mL is > 60 min.

For the compound `COc1cc2c(Nc3ccncc3)nc(N3CCC(F)(F)CC3)nc2cc1OCCCN1CCCC1` [Compound 7, 2-(4,4-difluoropiperidin-1-yl)-6-methoxy-N-(pyridin-4-yl)-7-(3-(pyrrolidin-1-yl)propoxy)quinazolin-4-amine], the Papp at 5 h, 20 μM was 0.055 to 1.5 ×10⁻⁶ cm/s in data set [1] (setting [3]) and 0.584 ×10⁻⁶ cm/s in data set [1] (setting [4]). Besides, the half-life at 1 μg/mL in data set [2] is > 60 min.

On to `COc1cc2c(NC3CCNCC3)nc(N3CCC(F)(F)CC3)nc2cc1OCCCN1CCCC1` [Compound 8, 2-(4,4-difluoropiperidin-1-yl)-6-methoxy-N-(piperidin-4-yl)-7-(3-(pyrrolidin-1-yl)propoxy)quinazolin-4-amine], for which the Papp at 5 h, 20 μM in data set [1] (setting [3]) is < 0.055 ×10⁻⁶ cm/s; in data set [1] (setting [4]) it was 0.00173 ×10⁻⁶ cm/s. For the same compound, the half-life at 1 μg/mL in data set [2] was > 60 min.

On to `COc1cc2c(NCC(N)=O)nc(N3CCC(F)(F)CC3)nc2cc1OCCCN1CCCC1` [Compound 9, 2-((2-(4,4-difluoropiperidin-1-yl)-6-methoxy-7-(3-(pyrrolidin-1-yl)propoxy)quinazolin-4-yl)amino)acetamide], for which the figures for the Papp at 5 h, 20 μM in data set [1] (setting [3]) and in data set [1] (setting [4]) were < 0.055 ×10⁻⁶ cm/s and 0.00981 ×10⁻⁶ cm/s, respectively. Moreover, the half-life at 1 μg/mL in data set [2] is > 60 min.

For the compound `COc1cc2c(NC3COC3)nc(N3CCC(F)(F)CC3)nc2cc1OCCCN1CCCC1` [Compound 11, 2-(4,4-difluoropiperidin-1-yl)-6-methoxy-N-(oxetan-3-yl)-7-(3-(pyrrolidin-1-yl)propoxy)quinazolin-4-amine], the apparent permeability coefficient (Papp) at 5 h, 20 μM in data set [1] (setting [3]) was 0.055 to 1.5 ×10⁻⁶ cm/s; in data set [1] (setting [4]) it was 0.458 ×10⁻⁶ cm/s. Further, the half-life at 1 μg/mL in data set [2] is > 60 min.

In the case of `COc1cc2c(NC3CCS(=O)(=O)CC3)nc(N3CCCC3)nc2cc1OCCCN1CCCC1` [Compound 80, 4-((6-methoxy-2-(pyrrolidin-1-yl)-7-(3-(pyrrolidin-1-yl)propoxy)quinazolin-4-yl)amino)tetrahydro-2H-thiopyran 1,1-dioxide], the results for the apparent permeability (Papp) at 5 h, 20 μM in data set [1] (setting [3]) and in data set [1] (setting [4]) were < 0.055 ×10⁻⁶ cm/s and 0.00298 ×10⁻⁶ cm/s, respectively. The half-life at 1 μg/mL in data set [2] is > 60 min.

`COc1cc2c(NC3CCS(=O)(=O)CC3)nc(N3CCOCC3)nc2cc1OCCCN1CCCC1` [Compound 102, 4-((6-methoxy-2-morpholino-7-(3-(pyrrolidin-1-yl)propoxy)quinazolin-4-yl)amino)tetrahydro-2H-thiopyran 1,1-dioxide]: the Papp at 5 h, 20 μM in data set [1] (setting [3]) is < 0.055 ×10⁻⁶ cm/s; in data set [1] (setting [4]), 0.000648 ×10⁻⁶ cm/s. In data set [2], the half-life at 1 μg/mL is > 60 min.

As for `COc1cc2c(NC3CCS(=O)(=O)CC3)nc(N3CCS(=O)(=O)CC3)nc2cc1OCCCN1CCCC1` [Compound 103, 4-(4-((1,1-dioxidotetrahydro-2H-thiopyran-4-yl)amino)-6-methoxy-7-(3-(pyrrolidin-1-yl)propoxy)quinazolin-2-yl)thiomorpholine 1,1-dioxide], the Papp at 5 h, 20 μM in data set [1] (setting [3]) was < 0.055 ×10⁻⁶ cm/s; in data set [1] (setting [4]) it was 0.0119 ×10⁻⁶ cm/s. Also, the half-life at 1 μg/mL in data set [2] is > 60 min.

Take `COc1cc2c(NC3CCS(=O)(=O)CC3)nc(N3CCN(C)CC3)nc2cc1OCCCN1CCCC1` [Compound 109, 4-((6-methoxy-2-(4-methylpiperazin-1-yl)-7-(3-(pyrrolidin-1-yl)propoxy)quinazolin-4-yl)amino)tetrahydro-2H-thiopyran 1,1-dioxide]: the apparent permeability (Papp) at 5 h, 20 μM in data set [1] (setting [3]) was < 0.055 ×10⁻⁶ cm/s; in data set [1] (setting [4]) it was 0.00475 ×10⁻⁶ cm/s. In addition, in data set [2], the half-life at 1 μg/mL is 20.5 min.

On to `COc1cc2c(NC3CCS(=O)(=O)CC3)nc(N3CCCN(C)CC3)nc2cc1OCCCN1CCCC1` [Compound 110, 4-((6-methoxy-2-(4-methyl-1,4-diazepan-1-yl)-7-(3-(pyrrolidin-1-yl)propoxy)quinazolin-4-yl)amino)tetrahydro-2H-thiopyran 1,1-dioxide], for which the apparent permeability coefficient (Papp) at 5 h, 20 μM is < 0.055 ×10⁻⁶ cm/s in data set [1] (setting [3]) and 0.00676 ×10⁻⁶ cm/s in data set [1] (setting [4]). Further, in data set [2], the half-life at 1 μg/mL is > 60 min.

In the case of `COc1cc2c(Nc3ccncc3)nc(-n3ccnc3)nc2cc1OCCCN1CCCC1` [Compound 130, 2-(1H-imidazol-1-yl)-6-methoxy-N-(pyridin-4-yl)-7-(3-(pyrrolidin-1-yl)propoxy)quinazolin-4-amine], the apparent permeability (Papp) at 5 h, 20 μM was < 0.055 ×10⁻⁶ cm/s in data set [1] (setting [3]) and 0.0129 ×10⁻⁶ cm/s in data set [1] (setting [4]). For the same compound, the half-life at 1 μg/mL in data set [2] was > 60 min.

`COc1cc2c(NC3CCN(C(C)C)CC3)nc(-n3ccnc3)nc2cc1OCCCN1CCCC1` [Compound 156, 2-(1H-imidazol-1-yl)-N-(1-isopropylpiperidin-4-yl)-6-methoxy-7-(3-(pyrrolidin-1-yl)propoxy)quinazolin-4-amine]: the values for the Papp at 5 h, 20 μM in data set [1] (setting [3]) and in data set [1] (setting [4]) were < 0.055 ×10⁻⁶ cm/s and 0.00225 ×10⁻⁶ cm/s, respectively. Moreover, the half-life at 1 μg/mL in data set [2] was > 60 min.

For the compound `COc1cc2c(NC3CCN(C(C)C)CC3)nc(-n3cccn3)nc2cc1OCCCN1CCCC1` [Compound 157, N-(1-isopropylpiperidin-4-yl)-6-methoxy-2-(1H-pyrazol-1-yl)-7-(3-(pyrrolidin-1-yl)propoxy)quinazolin-4-amine], the figures for the Papp at 5 h, 20 μM in data set [1] (setting [3]) and in data set [1] (setting [4]) were < 0.055 ×10⁻⁶ cm/s and 0.000555 ×10⁻⁶ cm/s, respectively. Moreover, the half-life at 1 μg/mL in data set [2] was > 60 min.

As for `COc1cc2c(N[C@H]3CCCNC3)nc(N3CCCC3)nc2cc1OCCCN1CCCC1` [Compound 158, (S)-6-methoxy-N-(piperidin-3-yl)-2-(pyrrolidin-1-yl)-7-(3-(pyrrolidin-1-yl)propoxy)quinazolin-4-amine], the figures for the Papp at 5 h, 20 μM in data set [1] (setting [3]) and in data set [1] (setting [4]) were < 0.055 ×10⁻⁶ cm/s and 0.00453 ×10⁻⁶ cm/s, respectively. Moreover, in data set [2], the half-life at 1 μg/mL was > 60 min.

`COc1cc2c(N[C@@H]3CCCNC3)nc(N3CCCC3)nc2cc1OCCCN1CCCC1` [Compound 159, (R)-6-methoxy-N-(piperidin-3-yl)-2-(pyrrolidin-1-yl)-7-(3-(pyrrolidin-1-yl)propoxy)quinazolin-4-amine]: the apparent permeability (Papp) at 5 h, 20 μM is < 0.055 ×10⁻⁶ cm/s in data set [1] (setting [3]) and 0.0227 ×10⁻⁶ cm/s in data set [1] (setting [4]). Also, in data set [2], the half-life at 1 μg/mL is > 60 min.

Consider `COc1cc2c(NC3CCN(C(C)C)CC3)nc(N3CCC(F)(F)CC3)nc2cc1OCCCN1CCCC1` [Compound 400, 2-(4,4-difluoropiperidin-1-yl)-N-(1-isopropylpiperidin-4-yl)-6-methoxy-7-(3-(pyrrolidin-1-yl)propoxy)quinazolin-4-amine, reference compound], for which the half-life at 1 μg/mL in data set [2] was > 60 min.
